Entries after “also recorded” stand apart in the source; their conditions may differ. One block for each molecule: values may come before it.
Columns and labels:
[1] = molecular target: GTP cyclohydrolase; settings: determined in vitro (Kolinsky and Gross 2004; Xie et al. 1998); read-out: IC50 range for GTP cyclohydrolase inhibition; cited from earlier work
[2] = system: Sprague Dawley rats; experiment: CFA-induced paw inflammation: thermal hyperalgesia (Hargreaves); type: in vivo, rat
Procedure: (§1) Adult male Sprague Dawley rats (150-200 g, Charles River Laboratories) were used. For the SNI model two branches of the sciatic nerve, the common peroneal and the tibial nerve, were ligated and sectioned distally. For the CCI model the sciatic nerve was constricted with three Dexon 4/0 ligatures. For the SNL model, the L5 spinal nerve was tightly ligated. All surgical procedures were under isoflurane anesthesia. For the Formalin test 50 μl of 5% formaldehyde solution were injected into a hindpaw and flinches were counted per minute up to 60 min. Paw inflammation was induced with 50 μl complete Freund's adjuvant (CFA) injected into a hindpaw. Nociceptive analysis was done blinded, and animals were fully habituated to the room and test cages. Mechanical allodynia was assessed with graded strength monofilament von Frey hairs (0.0174-20.9 gram, log scaled), cold allodynia with the acetone test and heat hyperalgesia with the Hargreaves test. […]
(§2) For the Formalin test 50 μl of 5% formaldehyde solution were injected into one hindpaw and flinches were counted per minute up to 60 min. […]
(§3) Animals were fully habituated and experiments performed blinded. Threshold for eliciting a withdrawal reflex to graded strength monofilament von Frey hairs (0.0174-20.9 g) was measured to assess mechanical allodynia. To measure cold allodynia, a drop of acetone was applied to the plantar hindpaw, and the time the animal spent licking, shaking or lifting the paw was measured (Tegeder et al., J Neurosci 24:1637-1645 (2004)). Paw withdrawal latency to radiant heat (lamp with 8 V, 50 W) assessed heat evoked pain (Ugo Basile).
Data are means ±SEM. […] Areas under the “effect versus time” curves (AUC) were calculated using the linear trapezoidal rule and compared with Student's t-test or univariate analysis of variance (ANOVA) with subsequent t-tests employing a Bonferroni alpha-correction for multiple comparisons. All other data were analyzed with univariate ANOVA or ANOVA for repeated measurements. […]

[3] = system: Sprague Dawley rats; experiment: Spinal nerve ligation (SNL) model: mechanical and cold allodynia; type: in vivo, rat; settings: 180 mg/kg i.p.
Procedure: as §1, with “Nociceptive analysis was done blinded, and animals were fully habituated to the room and test cages.” left out
as §3, with “Basile). […]” for “Basile).”

[4] = system: Rats; experiment: Forced Swim Test; type: in vivo, rat; settings: 180 mg/kg i.p., 3 injections
Procedure: FIGS. 8A-8D show the effects of DAHP injection. […] DAHP (250 μg/kg/h) was delivered to the lumbar spinal cord via a chronically implanted spinal catheter connected to an osmotic Alzet pump. Infusion started right after SNI surgery and continued 14 days, flow rate 5 μl/h (n=8, p<0.05). […] Effect versus time AUCs were used for statistical comparisons. […] Rats (n=7 per condition) received 3 separate injections of DAHP (180 mg/kg, i.p.), at 1 hr, 19 hrs, and 23 hrs after the first exposure to forced swimming. This commonly used treatment regimen identifies in rats agents with antidepressant or pro-depressant effects in humans (Mague et al., J Pharmacol Exp Ther 305:323-330 (2003)). Retest sessions (forced swim for 300 sec) occurred 24 hr after the first swim exposure and were videotaped from the side of the water cylinders and scored by raters unaware of the treatment condition. Rats were rated at 5 sec intervals throughout the duration of the retest session; at each 5 sec interval the predominant behavior was assigned to one of four categories: immobility, swimming, climbing, or diving. The sum of these scores are shown for each modality. For all panels, error SEM.

[5] = system: BH4 synthesis (GTP cyclohydrolase activity); experiment: Tissue concentrations of neopterin and biopterin in L4/5 DRGs (LC/MS-MS); type: in vivo, rat; settings: single 180 mg/kg i.p. 3 hours before dissection, 180 mg/kg
Procedure: Homogenized tissue was oxidized with iodine, and pteridines were extracted on Oasis MCX cartridges. Concentrations of total biopterin, neopterin, and the internal standard rhamnopterin were determined by LC/MS-MS. LC analysis under gradient conditions on a Nucleosil C8 column; MS-MS analyses on an API 4000 Q TRAP triple quadrupole mass spectrometer. Precursor-to-product ion transitions of m/z 236→192 for biopterin, m/z 252→192 for neopterin, m/z 265→192 for rhamnopterin were used for the MRM. Linearity from 0.1-50 ng/ml. The coefficient of correlation for all measured sequences was at least 0.99. The intra-day and inter-day variability was <10%.

[6] = system: Sprague Dawley rats; experiment: Nociceptive thresholds in naïve animals (von Frey, radiant heat); type: in vivo, rat; settings: naïve animals, 180 mg/kg i.p.; 180 mg/kg
Procedure: as §3
(§4) DAHP was dissolved in 1:1 polyethylene glycol (PEG400) and 1×PBS, pH 7.4 (15 mg/ml) and administered i.p. or intrathecally (250 μg/kg/h; 5 μl/h). For all i.t. injections/infusions a spinal catheter (Recathco) was used and implanted as described (Kunz et al., Pain 110:409-418 (2004)). Infusions with an osmotic pump (Alzet). 6R-BH4 in ACSF was injected i.t. (10 μg, single 10 μl injection). N-acetyl-serotonin in 1×PBS pH 7.4 containing 3% ethanol was delivered by i.t. infusion (100 μg/kg/h; 5 μl/h). Control animals received the appropriate vehicle. All drugs from Sigma-Aldrich.

[7] = system: serotonin; experiment: Serotonin concentrations in spinal cord and brain stem; type: in vivo, rat; settings: data not shown
[8] = Plasma and CSF concentrations of DAHP (LC/MS-MS); type: in vivo, rat; settings: after i.p. injection of 180 mg/kg; compared with IC50 range 100-300 μM
Procedure: Concentrations of DAHP were determined LC/MS-MS on a tandem quadrupole mass spectrometer (PE Sciex API 3000; Applied Biosystems). Extraction was by acetonitrile precipitation; chromatographic separation was performed on a Nucleosil C18 Nautilus column (125×4 mm I.D., 5 μm particle size, 100 Å pore size). Mobile phase was acetonitrile:water (80:20%, v/v), and formic acid (0.1%, v/v). Flow rate was 0.2 ml/min, and injection volume was 5 μl. DAHP eluted at 4.7 min. Mass spectrometer in positive ion mode, 5200 V, 400° C., auxiliary gas flow 6 l/min. The mass transition for the MRM was m/z 127→60. Quantification with Analyst software V1.1 (Applied Biosystems). Coefficient of variation over the calibration range of 10-4000 ng/ml <5%.

[9] = system: nitric oxide production; experiment: Nitric oxide production in L4/5 DRGs after SNI; type: in vivo, rat; settings: 7 d after SNI, once daily treatment
[10] = Observation of general well-being, body weight, gait, activity; type: in vivo, rat; settings: acute single or daily treatment, 180 mg/kg i.p.; 180 mg/kg
[11] = system: Sprague Dawley rats; experiment: Chronic constriction injury (CCI) model: mechanical and cold allodynia; type: in vivo, rat; settings: 180 mg/kg i.p.
Procedure: as §1, with “Nociceptive analysis was done blinded, and animals were fully habituated to the room and test cages.” left out
as §3, with “Basile). […]” for “Basile).”

[12] = system: Sprague Dawley rats; experiment: Spared nerve injury (SNI) model: mechanical (von Frey) and cold (acetone) allodynia; type: in vivo, rat
Procedure: (§5) Adult male Sprague Dawley rats (150-200 g, Charles River Laboratories) were used. For the SNI model two branches of the sciatic nerve, the common peroneal and the tibial nerve, were ligated and sectioned distally. For the CCI model the sciatic nerve was constricted with three Dexon 4/0 ligatures. For the SNL model, the L5 spinal nerve was tightly ligated. All surgical procedures were under isoflurane anesthesia. For the Formalin test 50 μl of 5% formaldehyde solution were injected into a hindpaw and flinches were counted per minute up to 60 min. Paw inflammation was induced with 50 μl complete Freund's adjuvant (CFA) injected into a hindpaw. Nociceptive analysis was done blinded, and animals were fully habituated to the room and test cages. Mechanical allodynia was assessed with graded strength monofilament von Frey hairs (0.0174-20.9 gram, log scaled), cold allodynia with the acetone test and heat hyperalgesia with the Hargreaves test. Drugs (Sigma) were injected intraperitoneally or intrathecally through a spinal catheter, osmotic pumps were used for infusion. Control animals received vehicle. L4/5 DRG and spinal cord tissue was processed for QRT-PCR, Western blotting, in situ hybridization and immunofluorescence studies.
as §3, §4
Data are means ±SEM. The number of animals per group was 9-12. Areas under the “effect versus time” curves (AUC) were calculated using the linear trapezoidal rule and compared with Student's t-test or univariate analysis of variance (ANOVA) with subsequent t-tests employing a Bonferroni alpha-correction for multiple comparisons. All other data were analyzed with univariate ANOVA or ANOVA for repeated measurements. P at 0.05 for all tests.

[13] = system: Sprague Dawley rats; experiment: Formalin test: flinching and cFos immunoreactive dorsal horn neurons; type: in vivo, rat
Procedure: as §5, §2

[14] = system: GCH1; experiment: LPS induction of GCH1 in cells of haplotype carriers and non-carriers; type: cell-based, human; settings: cells of individuals with versus without the pain protective haplotype
[15] = repeated daily injections, measured two-three hours after injection

- performance in the forced swim test [4]: had no effect
- plasma and CSF concentrations [8]: within the IC50 range
Molecule: Nc1cc(O)nc(N)n1 [DAHP, 2,4-diamino-6-hydroxypyrimidine]
- IC50 [1]: 100 to 300 µM
- thermal hyperalgesia ([2]; 180 mg/kg i.p., before CFA and 24 hours after CFA): significantly reduced thermal hyperalgesia; also recorded: reduce CFA-evoked heat hyperalgesia
- thermal hyperalgesia ([2]; single intrathecal injection of 1 mg/kg, 1 mg/kg): reduced thermal hyperalgesia
- mechanical and cold allodynia [3]: analgesic effects; also recorded: dose-dependent reductions in mechanical and cold allodynia
- biopterin levels in ipsilateral L4/5 DRGs ([5]; 24 h after CFA): reduced neopterin and biopterin; also recorded: significantly reduces elevated biopterin levels
- neopterin levels in ipsilateral L4/5 DRGs ([5]; 24 h after CFA): reduced neopterin and biopterin; also recorded: completely prevents the inflammation-evoked increase of neopterin
- biopterin levels in L4/5 DRGs ([5]; 7 days after SNI): reduced neopterin and biopterin; also recorded: significantly reduces biopterin levels
- neopterin levels in L4/5 DRGs ([5]; 7 days after SNI): reduced neopterin and biopterin; also recorded: completely prevents the nerve injury induced increases in neopterin
- mechanical threshold and radiant heat paw withdrawal latency [6]: failed to modify mechanical and thermal threshold; also recorded: did not change the mechanical threshold for paw withdrawal or radiant heat evoked paw withdrawal latency
- serotonin concentrations in spinal cord and brain stem [7]: did not, however, significantly reduce serotonin concentrations
- nitric oxide levels in L4/5 DRGs [9]: normalization of NO levels; also recorded: prevented by DAHP treatment
- general well-being, body weight, gait, activity [10]: No deleterious effect; also recorded: had no effect
- mechanical and cold allodynia [11]: analgesic effects; also recorded: dose-dependent reductions in mechanical and cold allodynia
- mechanical and cold pain hypersensitivity, established ([12]; 180 mg/kg/d i.p. starting 17 days after nerve injury): produced a significant reduction of mechanical and cold pain hypersensitivity; also recorded: decreases pain hypersensitivity
- relative efficacy, extent of return to pre-surgery baseline values ([12]; SNI model, versus comparators measured earlier (Decosterd et al. 2004)): exceeds that of non-sedating doses of morphine, gabapentin, amitriptyline, and carbamazepine
- analgesia on repeated daily administration ([12]; SNI, repeated daily administration): continues to produce analgesia without obvious loss of activity
- dose dependence of effect on mechanical and cold allodynia ([12]; SNI, repeated daily i.p. injections): dose dependent efficacy; also recorded: dose-dependent reductions in mechanical and cold allodynia
- mechanical and cold allodynia ([12]; continuous intrathecal infusion 250 μg/kg/h, 14 days from SNI surgery): reduces mechanical and cold allodynia
- linear relationship between dose and effect (R), cold allodynia [12, 15]: 0.754
- linear relationship between dose and effect (R), mechanical allodynia [12, 15]: 0.709
- time to reversal of mechanical and cold pain hypersensitivity ([12]; single dose 180 mg/kg i.p. four days after SNI): ≤ 60 min
- mechanical (von Frey) and cold allodynia ([12]; single dose 180 mg/kg i.p. four days after SNI, 180 mg/kg): significantly reduced mechanical (von Frey) and cold allodynia; also recorded: reverses mechanical and cold pain hypersensitivity
- formalin-induced flinching behavior ([13]; 180 mg/kg i.p. before formalin, first and second phases): significantly reduced formalin-induced flinching behavior in both phases; also recorded: significantly reduces the flinching behavior in the first and second phases
- number of cFos immunoreactive neurons in ipsilateral dorsal horn ([13]; 180 mg/kg i.p., two hours after formalin injection): reduced number of cFOS immunoreactive neurons; also recorded: significant reduction in the number of cFos immunoreactive neurons

Molecule: lipopolysaccharide [LPS]
- GCH1 induction [14]: induced GCH1 to a lesser extent
